Tests used:
S91 (mouse melanoma) = assay: Cell photosensitization, filtered halogen lamp, MTT; type: cell-based; conditions: [Luzitin-Cl-c] = 20 μM
Method: (§1) Irradiation in in vitro experiments was performed using either a halogen lamp or a laser source. In the first case, a 500 W halogen lamp was placed 50 cm from the irradiated plate to insure a homogeneous irradiation. A cooled water filter (d=35 mm) and a 600 nm cut off filter were placed between the lamp and samples. The fluence rate reaching samples was 3 mW/cm^2. The emission spectrum of the halogen lamp was recorded using a spectroradiometer IL2000 (Spectrocube), FIG. 1. In the second case, three Lynx external cavity diode lasers TEC 500 powered by PilotPC 500 Laser Controllers (Sacher Lasertechnik, Marburg, Germany) were employed. The laser energies were stable at 40 mW for the 748 nm laser, 10 mW for the 649 laser and 10 mW for the 633 laser. The laser energies were regularly measured with a Coherent LaserCheck. In some in vitro experiments, the laser light was focused on an optical fiber through a collimator in microbench, and delivered to the cells. This system reduced the 748 nm laser light to 30 mW.
(§2) The cell lines employed in halogen lamp irradiation were the MCF7 (human breast carcinoma), SKMEL 188 (human melanoma) and S91/I3 (mouse melanoma) cells. They were used both for cytotoxicity and photocytotoxicity experiments. MCF7 cells were grown supplemented with 10% fetal calf (FBS) serum, 25 units/ml of penicillin, and 25 μg/ml of streptomycin. Human melanoma cells SKMEL-188 were grown in F10 medium supplemented with 10% fetal calf serum (FCS), 100 units/ml of penicillin, and 100 μg/ml of streptomycin. I3 subline of Cloudman S91 melanoma cells were cultured in RPMI 1640 medium supplemented with 100 units/ml of penicillin, 100 μg/ml streptomycin and 5% fetal calf serum (FCS) (Gibco BRL). All cell lines were cultivated as monolayer in Petri dishes of 60 mm diameter and incubated at 37° C. in a humid atmosphere containing 5% CO2.
(§3) Cytotoxicity. Cell metabolic efficiency and viability were determined by the uptake and reduction of 3-(4,5-dimethylthiazol-2-yl)-2,5-diphenyl tetrazolium bromide (MTT) to an insoluble formazan dye by cellular microsomal enzymes. The cell lines were grown in RPMI medium with 10% fetal calf serum, penicillin and streptomycin. Cells were maintained in 5% CO2, 95% air and 100% humidity. For determining cytotoxicity, these cells were plated in 96-well plates at a density of 1×10^4 cells well in complete media. After 24 h, the cells were incubated with photosensitizers at different concentrations (0.25 up to 50 μM) for 18 hours at 37° C. The cells were then washed twice with PBS and incubated in growth medium at 37° C. for 24 h. Next, the medium was replaced by 100 μl of fresh medium and 20 μl of MTT, and the cells were incubated with MTT for 3 h, with a final concentration of 0.5 mg/ml. Then the culture medium was replaced with DMSO-methanol solution (1:1) to dissolve the blue formazan crystals. The 96-well culture plate was shaken for 0.5 min at room temperature and immediately read for optical density at 560 nm using an ELISA reader (GENios Plus; Tecan Trading AG, Switzerland). The cell survival was expressed by the absorbance changes of the formazan salt, and survival rate was given as the percent ratio of viable treated cells vs. the number of viable untreated cells. Number of cells was determined from linear regression of a calibration curve.
(§4) Cell photosensitization. SKMEL 188, S91 and MCF7 cells were prepared as described above. […] The cells were incubated for 12 h at 37° C. and then irradiated at a 0.53 mW cm^2 fluence rate and in doses ranging from 0.1 to 0.64 J cm^2. We recall that photosensitizer uses only ca. ⅕ of the available fluence rate of the filtered halogen lamp. The MTT test was performed 24 h after irradiation. The values were obtained from three independent experiments and expressed as percent of cell survival with reference to control cells, which were manipulated in the same manner but without incubation with photosensitizer and without illumination. […]

[1] = tested on: MCF7 (human breast carcinoma); assay: as above; type: cell-based; conditions: [Luzitin-Cl-c] = 20 μM, filtered halogen lamp
Method: as §1, §2, §3, §4

[2] = tested on: SKMEL 188 (human melanoma); assay: as above; type: cell-based; conditions: [Luzitin-Cl-c] = 20 μM
Method: as §1
as §2, with “All cell lines were cultivated as monolayer in Petri dishes of 60 mm diameter and incubated at 37° C. in a humid atmosphere containing 5% CO2.” left out
Cytotoxicity. Cell metabolic efficiency and viability were determined by the uptake and reduction of 3-(4,5-dimethylthiazol-2-yl)-2,5-diphenyl tetrazolium bromide (MTT) to an insoluble formazan dye by cellular microsomal enzymes. […] The 96-well culture plate was shaken for 0.5 min at room temperature and immediately read for optical density at 560 nm using an ELISA reader (GENios Plus; Tecan Trading AG, Switzerland). The cell survival was expressed by the absorbance changes of the formazan salt, and survival rate was given as the percent ratio of viable treated cells vs. the number of viable untreated cells. Number of cells was determined from linear regression of a calibration curve.
Cell photosensitization. […] The values were obtained from three independent experiments and expressed as percent of cell survival with reference to control cells, which were manipulated in the same manner but without incubation with photosensitizer and without illumination.

[3] = Fluorescence quantum yield; type: physicochemical; conditions: in aqueous solution
Method: The absorptions of both reference and sample solutions were matched at ca 0.2 at the excitation wavelength of 515.5 nm, and the solutions were diluted by a factor 10 before collecting the fluorescence. The fluorescence quantum yield was obtained from the ratio of the fluorescence bands of the sample vs the reference, multiplied by the fluorescence quantum yield of the reference, 0.012 according to [12], after correction for the difference of refractive indexes of ethanol and toluene.
(§5) This is indicative of little aggregation between the molecules, which exist mostly as monomers at these concentrations in the solvents studied. Table 1 presents typical red and infrared molar absorption coefficients (εmax) and wavelength maxima. The same table also presents representative fluorescence quantum yields (ΦF) of Luzitins. The fluorescence quantum yields decrease of these molecules decrease in the presence of chlorine substituents, a fingerprint of the heavy atom effect expected for such molecules.

[4] = Singlet oxygen quantum yield and lifetime (1270 nm phosphorescence); type: physicochemical; conditions: in aqueous solution
[5] = Absorption spectra (λmax, molar absorption coefficient); type: physicochemical; conditions: in aqueous solution
Method: Absorption spectra were recorded on a Shimadzu UV-2100 spectrophotometer or with a Carry 50 Biospectrophotometer (Varian, Mulgrave, USA). Fluorescence spectra were measured with a Spex Fluorolog 3 spectrophotometer, with correction for the wavelength dependence system (RCA C31034 photomultiplier), or with a PerkinElmer LS 50 spectrofluorimeter. Transient absorption spectra were measured with an Applied Photophysics LKS 60 nanosecond laser flash photolysis kinetic spectrometer, using the third harmonic of a Spectra-Physics Quanta Ray GCR 130-01 Nd/YAG laser for excitation, a Hamamatsu 1P28 photomultiplier and a Hewlett-Packard Infinium oscilloscope (1 GS/s). Flash photolysis measurements were made in the presence of air and in argon saturated solutions. Photoacoustic calorimetry employed the same Nd/YAG laser, a home-made front-face photoacoustic cell with a 2.25 MHz Panametrics transducer (model 5676) and a Tektronix DSA 601 transient recorder. Room-temperature singlet-oxygen phosphorescence was measured at 1270 nm with a Hamamatsu R5509-42 photomultiplier, cooled to 193 K in a liquid nitrogen chamber (Products for Research model PC176TSCE005), following laser excitation of aerated solutions at 355 nm, using an adapted Applied Photophysics spectrometer. Singlet oxygen emission at 1270 nm was also monitored with a liquid nitrogen-cooled germanium detector (North Coast) coupled to a Tectronix Digitizing scope (TDS 520B), following sample excitation with 5 ns laser pulses of the third harmonic (355 nm) generated by a Q-switched Nd:YAG laser (Continuum Surelite II).
as §5

For O=S(=O)(O)c1ccc(Cl)c(-c2c3nc(c(-c4cc(S(=O)(=O)O)ccc4Cl)c4ccc([nH]4)c(-c4cc(S(=O)(=O)O)ccc4Cl)c4nc(c(-c5cc(S(=O)(=O)O)ccc5Cl)c5ccc2[nH]5)CC4)C=C3)c1 [Luzitin-Cl-c, 5,10,15,20-tetrakis(2-chloro-5-sulfonylphenyl)chlorin], the “LD50 (light dose to kill 50% of the cells)” value (S91 (mouse melanoma)) was 0.13 J/cm^2, the “LD90 (light dose to kill 90% of the cells)” value (S91 (mouse melanoma)) was 0.26 J/cm^2 and the “LD50 (light dose to kill 50% of the cells)” value [1] was 0.3 J/cm^2. The “LD90 (light dose to kill 90% of the cells)” value [1] was 0.7 J/cm^2, the “LD50 (light dose to kill 50% of the cells)” value [2] was 0.26 J/cm^2 and the “LD90 (light dose to kill 90% of the cells)” value [2] was 0.46 J/cm^2. The “ΦF (fluorescence quantum yield)” value [3] was 0.039, the “ΦΔ (singlet oxygen quantum yield)” value [4] was 0.69 and the εmax [5] was 7,000 M^−1 cm^−1. It also gave a λmax [5] of 650 nm.

Source: patent US9670217B2, “Process for preparing chlorins and their pharmaceutical uses” (UNIVERSIDADE DE COIMBRA, priority 2008, dated 2017)
